Among the data in DBAASP are MIC values, retold here.

Some test systems named below: Bacillus cereus; Enterococcus faecalis; Escherichia coli; Leuconostoc lactis; Listeria innocua; Micrococcus luteus; Pasteurella multocida; Staphylococcus aureus; Streptococcus uberis; Bacillus subtilis 168; Escherichia coli B; Pseudomonas aeruginosa; Botrytis cinerea; Escherichia coli K88; Escherichia coli UB1005.
Assay in all cases: ≥ marks a high value that may be exact or a test limit, other limits are often not marked, values filed in µg/mL are converted to µM
Experiment [1] concerns Staphylococcus epidermidis.
Experiment [2] concerns Pseudomonas aeruginosa ATCC 27853.
The test system of experiment [3] is Staphylococcus aureus ATCC 25923.
Experiment [4] relates to Staphylococcus aureus ATCC 33591.
The test system of experiment [5] is Staphylococcus epidermidis ATCC 35984.
The test system of experiment [6] is Candida albicans F7-39/IDE99.
Experiment [7] has as its system Micrococcus luteus CCM 144.
Experiment [8] has as its system Staphylococcus aureus ATCC 43300.
For experiment [9], the system named is Candida albicans ATCC 10231.
The test system of experiment [10] is Escherichia coli ATCC 11775.
Experiment [11] deals with Staphylococcus aureus ATCC 12600.
The subject of experiment [12] is Escherichia coli CVCC 1515.
Experiment [13] concerns Salmonella enterica subsp. enterica serovar Typhimurium ATCC 14028.
The subject of experiment [14] is Staphylococcus epidermidis ATCC 12228.
In experiment [15] the test system is Bacillus subtilis ATCC 23857.
For experiment [16], the system named is Escherichia coli ATCC 25922.
Experiment [17] concerns Staphylococcus aureus USA 300.

SMILES strings stand for the structures. In brackets after ≈: the same amount, converted by molar mass.

The MIC is the smallest concentration in the dilution series that meets the test's criterion for growth inhibition. High values mean a need for much substance, low ones inhibition by little substance. Consider `CC[C@H](C)[C@H](NC(=O)[C@H](C)NC(=O)[C@H](CCC(=O)O)NC(=O)[C@H](Cc1cnc[nH]1)NC(=O)[C@@H](N)Cc1ccccc1)C(=O)N[C@@H](C)C(=O)N1CCC[C@H]1C(=O)N[C@H](C(=O)N[C@H](C(=O)N[C@@H](Cc1cnc[nH]1)C(=O)N[C@@H](C)C(=O)N[C@@H](C)C(=O)N[C@H](C(=O)N[C@@H](CCCCN)C(=O)N[C@@H](C)C(=O)N[C@@H](CC(C)C)C(=O)N[C@H](C(=O)NCC(=O)N[C@@H](Cc1ccccc1)C(=O)N[C@@H](CC(C)C)C(=O)NCC(N)=O)C(C)C)C(C)C)C(C)C)C(C)C` [FHEAIAPVVHAAVKALVGFLG], for which the MIC in the experiment on Bacillus cereus is no less than 46.6 µM; in the experiment on Enterococcus faecalis it was no less than 46.6 µM; in the experiment on Escherichia coli it was greater than 46.6 µM; against Leuconostoc lactis, 23.3 µM (≈ 50 µg/mL); in the experiment with Listeria innocua, no less than 46.6 µM; in the experiment with Micrococcus luteus it was no less than 46.6 µM. The MIC with Pasteurella multocida is no less than 46.6 µM; against Staphylococcus aureus it was greater than 46.6 µM; in experiment [1], no less than 46.6 µM; against Streptococcus uberis, no less than 46.6 µM.
For the compound `CC(C)C[C@H](NC(=O)[C@@H](N)Cc1ccccc1)C(=O)N[C@@H](CCCCN)C(=O)N[C@@H](CCCCN)C(=O)N[C@@H](C)C(=O)N[C@@H](CCCCN)C(=O)N[C@@H](CCCCN)C(=O)N[C@@H](Cc1ccccc1)C(=O)NCC(=O)N[C@@H](CCCCN)C(=O)N[C@@H](C)C(=O)N[C@@H](Cc1ccccc1)C(N)=O` [FLKKAKKFGKAF], the MIC is 45.3 µM (≈ 64 µg/mL) in experiment [2], greater than 362 µM in experiment [3], no less than 362 µM in experiment [4] and no less than 181 µM in experiment [5].
On to `CC[C@H](C)[C@H](NC(=O)CN)C(=O)N[C@@H](CCSC)C(=O)N[C@@H](CO)C(=O)N[C@@H](CO)C(=O)N[C@@H](CC(C)C)C(=O)N[C@@H](CCSC)C(=O)N[C@@H](CCCCN)C(=O)N[C@@H](CCCCN)C(=O)N[C@@H](CC(C)C)C(=O)N[C@@H](CCCCN)C(=O)N[C@@H](CCCCN)C(=O)N[C@@H](Cc1cnc[nH]1)C(=O)N[C@H](C(=O)N[C@@H](C)C(=O)N[C@@H](CCCCN)C(N)=O)[C@@H](C)CC` [GIMSSLMKKLKKHIAK], for which the minimal inhibitory concentration (MIC) was determined as 7 µM (≈ 12.7 µg/mL) with Bacillus subtilis 168; 12 µM (≈ 21.7 µg/mL) in experiment [6]; 26 µM (≈ 47.1 µg/mL) in the experiment with Escherichia coli B; 3 µM (≈ 5.44 µg/mL) in experiment [7]; 6.4 µM (≈ 11.6 µg/mL) in [2]; 17 µM (≈ 30.8 µg/mL) against Pseudomonas aeruginosa. The minimum inhibitory concentration (MIC) in experiment [8] was greater than 100 µM; in the experiment on Staphylococcus aureus, greater than 100 µM; in [1] it was 10 µM (≈ 18.1 µg/mL).
As to `CC[C@H](C)[C@H](NC(=O)[C@H](CC(C)C)NC(=O)[C@H](CCCCN)NC(=O)[C@@H](NC(=O)[C@@H](NC(=O)[C@H](Cc1cnc[nH]1)NC(=O)[C@@H]1CCCN1C(=O)[C@H](CC(C)C)NC(=O)[C@@H](NC(=O)[C@H](CCCCN)NC(=O)[C@H](C)NC(=O)[C@H](Cc1c[nH]c2ccccc12)NC(=O)[C@H](CC(C)C)NC(=O)[C@H](CO)NC(=O)[C@H](C)NC(=O)[C@H](CCSC)NC(=O)CN)C(C)C)C(C)C)C(C)C)C(=O)N[C@@H](CCCCN)C(=O)O` [GMASLWAKVLPHVVKLIK], the MIC in the experiment on Bacillus subtilis 168 worked out at 4.7 µM (≈ 9.36 µg/mL); in experiment [6], 8.7 µM (≈ 17.3 µg/mL); against Escherichia coli B it was 2.3 µM (≈ 4.58 µg/mL); in experiment [7], 1.7 µM (≈ 3.38 µg/mL); against Pseudomonas aeruginosa it was 53.3 µM (≈ 106 µg/mL); against Staphylococcus aureus it was 6 µM (≈ 11.9 µg/mL).
Consider `CC[C@H](C)[C@H](NC(=O)[C@H](Cc1ccccc1)NC(=O)[C@H](CO)NC(=O)[C@H](CC(C)C)NC(=O)[C@@H](NC(=O)[C@H](CCCN=C(N)N)NC(=O)CN)[C@@H](C)CC)C(=O)N[C@@H](CCCCN)C(=O)NCC(=O)N[C@@H](CC(C)C)C(=O)N[C@@H](C)C(=O)N[C@@H](CCC(=O)O)C(=O)N[C@@H](Cc1cnc[nH]1)C(=O)N[C@@H](CC(C)C)C(N)=O` [GRILSFIKGLAEHL], for which the minimum inhibitory concentration (MIC) is 9.65 µM (≈ 15 µg/mL) with Botrytis cinerea, 6.44 µM (≈ 9.99 µg/mL) in experiment [9], no less than 64.4 µM in [10] and no less than 64.4 µM in [11].
`CC[C@H](C)[C@H](NC(=O)[C@H](C)NC(=O)CNC(=O)[C@H](Cc1c[nH]c2ccccc12)NC(=O)[C@H](CC(N)=O)NC(=O)[C@@H](N)CC(C)C)C(=O)N[C@@H](CC(C)C)C(=O)N[C@@H](CCCCN)C(=O)N[C@@H](CCCCN)C(=O)N[C@H](C(=O)N[C@H](C(=O)N[C@@H](CCCCN)C(N)=O)[C@@H](C)CC)[C@@H](C)CC` [LNWGAILKKIIK]: the MIC against Bacillus subtilis 168 amounted to 2 µM (≈ 2.79 µg/mL); in experiment [6] it was 6 µM (≈ 8.37 µg/mL); against Escherichia coli B, 4.3 µM (≈ 6 µg/mL); in experiment [7] it was 2.7 µM (≈ 3.77 µg/mL); in the experiment with Pseudomonas aeruginosa, 43.3 µM (≈ 60.4 µg/mL); in the experiment with Staphylococcus aureus, 7.3 µM (≈ 10.2 µg/mL).
As for `CC(C)C[C@H](NC(=O)[C@H](Cc1c[nH]c2ccccc12)NC(=O)[C@H](CCCCN)NC(=O)[C@H](C)NC(=O)[C@H](C)NC(=O)[C@H](C)NC(=O)[C@H](CCCCN)NC(=O)[C@H](C)NC(=O)[C@H](C)NC(=O)[C@H](C)NC(=O)[C@H](CCCCN)NC(=O)[C@H](Cc1c[nH]c2ccccc12)NC(=O)[C@@H](N)CC(C)C)C(N)=O` [LWKAAAKAAAKWL], the MIC in [12] turned out to be 8 µM (≈ 11.4 µg/mL); in the experiment with Escherichia coli K88, 4 µM (≈ 5.71 µg/mL); with Escherichia coli UB1005 it was 8 µM (≈ 11.4 µg/mL); in experiment [2], 16 µM (≈ 22.8 µg/mL); in experiment [13], 64 µM (≈ 91.3 µg/mL); in [14], 16 µM (≈ 22.8 µg/mL).
With `CC[C@H](C)[C@H](NC(=O)CNC(=O)[C@@H](N)CCSC)C(=O)N[C@H](C(=O)N[C@@H](C)C(=O)NCC(=O)N[C@H](C(=O)N[C@H](C(=O)N[C@@H](CCCCN)C(=O)N[C@H](C(=O)N[C@H](C(=O)N[C@@H](CCCCN)C(=O)N[C@@H](CO)C(=O)N[C@@H](CC(C)C)C(=O)N[C@H](C(=O)N[C@@H](CCC(=O)O)C(=O)N[C@@H](CCC(N)=O)C(=O)N[C@@H](Cc1ccccc1)C(=O)N[C@H](C(=O)NCC(=O)N[C@@H](CCCCN)C(=O)O)[C@@H](C)O)[C@@H](C)CC)[C@@H](C)CC)C(C)C)[C@@H](C)CC)[C@@H](C)CC)[C@@H](C)CC` [MGIIAGIIKVIKSLIEQFTGK], the MIC in experiment [15] is no less than 128 µM; in [16], greater than 128 µM; in experiment [17], no less than 64 µM; in [5] it was no less than 64 µM.
Take `CC(C)C[C@H](NC(=O)[C@H](CCCCN)NC(=O)[C@H](C)NC(=O)[C@H](C)NC(=O)[C@H](C)NC(=O)[C@H](CCCCN)NC(=O)[C@H](C)NC(=O)[C@H](C)NC(=O)[C@H](C)NC(=O)[C@H](CCCCN)NC(=O)[C@H](CC(C)C)NC(=O)[C@@H](N)Cc1c[nH]c2ccccc12)C(=O)N[C@@H](Cc1c[nH]c2ccccc12)C(N)=O` [WLKAAAKAAAKLW]: the MIC in experiment [12] amounted to 4 µM (≈ 5.71 µg/mL); against Escherichia coli K88, 2 µM (≈ 2.85 µg/mL); with Escherichia coli UB1005, 4 µM (≈ 5.71 µg/mL); in [2], 16 µM (≈ 22.8 µg/mL); in experiment [13], 8 µM (≈ 11.4 µg/mL); in experiment [14] it was 8 µM (≈ 11.4 µg/mL).
